# In article PMC11722135, “Structure- and Ligand-Based Virtual Screening for Identification of Novel TRPV4 Antagonists” (Molecules, 2024):
# Entries after “also recorded” stand apart in the source; their conditions may differ.
# Columns and labels:
# human TRPV4 [1] = biological target: T1, human TRPV4 (Homo sapiens, UniProt Q9HBA0); test: FLIPRtetra calcium assay, first addition (agonism); assay type: cell-based
# T1 construct: host or cells: HEK-293 cells (ATCC), transient transfection
# Procedure: (§1) The TRPV4 pharmacology of the hit compounds (Enamine) and the natural stilbenoids (purity > 95%, extracted at the Laboratory of Organic Chemistry at Åbo Akademi University) was studied with the fluorometric imaging plate reader FLIPR^tetra (Molecular Devices, San Jose, CA, USA) using a dual addition protocol, in which a compound’s agonism is initially measured and then, subsequently, a reference agonist is added to assess the compound’s possible antagonism. The studies were conducted in a 96-well plate format using HEK-293 cells (ATCC) that were transiently transfected with the human TRPV4 plasmid (Origene, Rockville, MD, USA, cat. SC309684). HEK cells were used as they are easy to transfect, and TRPV4 overexpressing cells provide a robust system to study TRPV4-mediated calcium responses with a wide signal window. In the experiments, the cells were loaded with a Calcium 4 Assay reagent (Molecular Devices) to enable intracellular calcium measurements. The study protocol was initiated by dispensing a concentration series (0.05–37.5 µM) of the test compounds on cells by FLIPR^tetra, and the agonism was recorded for 10 min followed by the second addition, 500 nM of the known TRPV4 agonist GSK1016790A (Sigma-Aldrich, St. Louis, […], USA, cat. G0798). The antagonism of the test compounds was measured for 2 min. All the experiments were performed at 37 °C. The excitation and emission were measured at wavelengths of 470–495 nm and 515–575 nm, respectively.
# (§2) In compound agonism and antagonism analysis, the fluorescence values were normalized by subtracting the baseline value from the maximum value of the first 10 min and of the last 2 min measured for each well, respectively. EC50 and IC50 values were determined from dose–response curves using a nonlinear regression curve fit by Prism (version 9.1.0). Dose–response curves were constructed from a mean of 3 separate wells at each compound concentration.
# human TRPV4 [2] = biological target: T1, human TRPV4; test: FLIPRtetra calcium assay, second addition (antagonism of 500 nM GSK1016790A); assay type: cell-based; conditions: for IC50: HEK-293 cells transiently transfected with human TRPV4, 500 nM GSK1016790A, 37 °C, read-out: IC50 (inhibition of response evoked by GSK1016790A); for Inhibitory effect / activity on hTRPV4 in vitro: natural stilbenoids, 0.05–37.5 µM concentration series
# Procedure: as §1, §2
# TRPV4 = test system: TRPV4; set-up: method as in doi:10.1101/2020.10.13.334797; conditions: read-out: EC50 (TRPV4 agonist); cited from earlier work
# T1 sequence (Q9HBA0 whole entry): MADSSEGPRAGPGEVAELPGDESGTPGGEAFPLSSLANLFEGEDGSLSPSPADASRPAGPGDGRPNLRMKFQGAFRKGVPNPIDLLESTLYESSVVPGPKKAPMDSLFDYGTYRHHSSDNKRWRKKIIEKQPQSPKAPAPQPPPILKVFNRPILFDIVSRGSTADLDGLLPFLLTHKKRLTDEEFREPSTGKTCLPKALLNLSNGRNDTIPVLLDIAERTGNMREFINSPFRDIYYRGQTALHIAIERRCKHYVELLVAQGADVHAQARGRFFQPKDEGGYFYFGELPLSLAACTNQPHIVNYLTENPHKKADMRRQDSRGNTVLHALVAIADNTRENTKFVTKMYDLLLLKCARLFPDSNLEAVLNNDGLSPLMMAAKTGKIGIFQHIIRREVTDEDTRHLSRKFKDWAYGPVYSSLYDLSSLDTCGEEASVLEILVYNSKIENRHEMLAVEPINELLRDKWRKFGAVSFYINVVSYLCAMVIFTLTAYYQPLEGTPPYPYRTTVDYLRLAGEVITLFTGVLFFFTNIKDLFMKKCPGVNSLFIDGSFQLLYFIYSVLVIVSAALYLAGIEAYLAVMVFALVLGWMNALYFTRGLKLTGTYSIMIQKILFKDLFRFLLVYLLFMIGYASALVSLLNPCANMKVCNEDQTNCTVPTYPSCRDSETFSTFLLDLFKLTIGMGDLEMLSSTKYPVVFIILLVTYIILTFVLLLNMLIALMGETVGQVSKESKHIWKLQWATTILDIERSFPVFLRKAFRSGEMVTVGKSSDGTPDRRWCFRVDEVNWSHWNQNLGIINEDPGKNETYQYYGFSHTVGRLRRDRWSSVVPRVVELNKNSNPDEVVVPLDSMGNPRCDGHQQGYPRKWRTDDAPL
structure (smiles),measurement,setting,value
CN1C(=O)c2ccc(NCc3nc(-c4c(F)cccc4F)cs3)cc2C1=O [Z1728742868],EC50,"human TRPV4 [1]; HEK-293 cells transiently transfected with human TRPV4, 37 °C, read-out: EC50 (increase in intracellular calcium)",14 µM
same,Inhibition of the effect of GSK1016790A,"human TRPV4 [2]; 37.5 µM (highest test concentration), 500 nM GSK1016790A",inhibited the effect of GSK1016790A; also recorded: effectively inhibited the response
O=C(CC(NC(=O)c1ccccc1Cl)c1ccccc1)Nc1ccc(N2CCCC2)nc1 (stereo not drawn) [Z221487176],IC50,human TRPV4 [2],> 30 µM
"COc1cc(/C=C/c2cc(O)cc(O[C@@H]3O[C@H](CO)[C@@H](O)[C@H](O)[C@H]3O)c2)ccc1O [Isorhapontin, isorhapontin]",Inhibitory effect / activity on hTRPV4 in vitro,human TRPV4 [2],inactive
"OC[C@H]1O[C@@H](Oc2cc(O)cc(/C=C/c3ccc(O)c(O)c3)c2)[C@H](O)[C@@H](O)[C@@H]1O [Astringin, astringin]",Inhibitory effect / activity on hTRPV4 in vitro,human TRPV4 [2],inactive
"CCCCCCCCCC(=O)O[C@@H]1[C@@H](C)[C@@]2(O)[C@@H](C=C(CO)C[C@@]3(O)C(=O)C(C)=C[C@@H]23)[C@@H]2C(C)(C)[C@]12OC(=O)CCCCCCCCC [4α-PDD, 4α-phorbol 12,13-didecanoate]",EC50,TRPV4,0.2 µM
CC(C)C[C@H](NC(=O)c1cc2ccccc2s1)C(=O)N1CCN(C(=O)[C@H](CO)NS(=O)(=O)c2ccc(Cl)cc2Cl)CC1 [GSK1016790A],EC50,TRPV4,0.002 µM
O=C(CC1C(=O)Nc2ccccc2N1C(=O)/C=C/c1ccccc1)Nc1ccc(F)cc1 (stereo not drawn) [Z1213735368],Agonistic activity on the channel,human TRPV4 [1]; 10 µM,without any agonistic activity
same,Increase in the fluorescence signal / [Ca2+] (agonism),human TRPV4 [1]; high concentration (30 µM),evoked a slow increase in the fluorescence signal; also recorded: gradually raised [Ca^2+] levels
same,Inhibition of the response evoked by GSK1016790A,"human TRPV4 [2]; 10 µM, 500 nM GSK1016790A",inhibited the response evoked by GSK1016790A; also recorded: inhibited the response induced by GSK1016790A
same,Inhibitory effect on hTRPV4 / reversal of the effect of GSK1016790A,"human TRPV4 [2]; 30 µM (high concentration), 500 nM GSK1016790A",reverse the effect of GSK1016790A
same,IC50,human TRPV4 [2],8 µM
